Data from patent publication US20240209022A1, “NOVEL PEPTIDE HAVING ANTI-INFLAMMATORY AND TISSUE REGENERATIVE ACTIONS” (KOREA RESEARCH INSTITUTE OF BIOSCIENCE AND BIOTECHNOLOGY, priority 2020, published 2024).

B1: Amuc_1409: SEQ ID NO: 15, functional fragment obtained by eliminating the leader sequence from SEQ ID NO: 14; protein derived from Akkermansia muciniphila (protein)
chain: IPESSVPAAAVSSIKGAYPNAGPIEWDSEMHGMERIYEAEFRINGFQFDVKIAPDGKIVRIKEEIAASSLPEAVRASVLKRYPGCRIKEAEKITEGELVRYKVEVADSRDDYDVLIAPDGNILHVDR
modifications: Amuc_1409_fragment
notes: protein derived from Akkermansia muciniphila

Experiments:
[1] = tested on: animal model of muscle atrophy/muscle strength loss due to natural aging (geriatric sarcopenia); experiment: Geriatric sarcopenia model (natural aging): muscle strength and muscle mass; type: in vivo, C57BL/6 mice; conditions: vs PBS buffer group; for grip strength: 11th week of administration, oral 0.2 μg/150 μL; for GC (gastrocnemius) muscle weight / TA (tibialis anterior) muscle weight / soleus muscle weight: after the experiment; for muscle strength (grip strength): oral
Experimental: The efficacy of the peptides was verified using an animal model of muscle atrophy/muscle strength loss due to natural aging (geriatric sarcopenia). At the time of administration of Amuc_1409, 80 to 83-week old C57BL/6 male mice were used. Amuc_1409 was dissolved in PBS buffer at a concentration of 2.4 μM and then orally administered to the mice by 150 μL per animal at the same time once a day for 32 weeks. To the control group, PBS buffer was orally administered in the same manner. At the 16th week of Amuc_1409 administration, aged mice were allowed to hold the wire net connected to the muscle strength probe of the grip strength meter with all four paws, and then the tail was carefully pulled backward to measure the maximum grip strength at the moment at which the mice held onto the wire net. For muscle weight, after administration, the gastrocnemius (GC), soleus, and tibialis anterior (TA) muscles from both hind paws of the aged mice of each group were carefully separated to avoid damage, and each weight was measured. Muscle weight versus body weight was calculated by correcting with the body weight of the mouse. After the end of the experiment, in order to analyze the size of muscle fibers in each group, TA muscles were fixed in 10% formalin, and frozen section samples (8 μm) were prepared to prepare slides. The prepared slides were washed with PBS buffer solution, permeabilized with 0.5% Triton X-100, blocked, and treated with primary antibody (anti-laminin). After 24 hours, a fluorescent secondary antibody (Alexa Fluor 488 Goat anti-rabbit IgG) was applied, and the slides were finally treated with DAPI for nuclear staining. The immunostained slides were subjected to photographing of muscle tissue using a confocal microscope. Using image analysis software (ImageInside), the distribution of cross-sectional area of muscle fibers was calculated for each size from a minimum of 500 μm^2 or less to 3500 μm^2 or more. Meanwhile, in order to examine the efficacy of Amuc_1409 as well as its fragments, 82- to 83-week-old C57BL/6 male mice were used. PEP001 was dissolved in PBS buffer at a concentration of 2.4 μM and then orally administered to the mice by 150 μL per animal at the same time once a day for 10 weeks. To the control group, PBS buffer was orally administered in the same manner. At the 10th week of PEP001 administration, the maximum grip strength and muscle weight were calculated in the same manner as the measurement in Amuc_1409. At the end of the experiment, a part of the GC muscle excised was homogenized with Trizol to extract RNA. Reverse transcriptase was added to the obtained RNA and reacted to synthesize cDNA, and SYBR Green and primers were added to perform quantitative real-time PCR (RT-qPCR). The gene expression level of insulin-like growth factor (IGF-1) involved in protein synthesis in muscle cells was then quantified. In addition, in order to confirm the efficacy of the novel tetrapeptides and tripeptides PEP006 to PEP013, the improvement efficacy on geriatric sarcopenia was examined using naturally aged 76 to 78-week old female C57BL/6J mice. For an additional 12 weeks, the novel tetrapeptides PEP006, PEP007, PEP008, PEP009, and PEP010 or novel tripeptides PEP011, PEP012, and PEP013 were each dissolved in PBS buffer at a concentration of 0.2 μg/150 μL and then orally administered to the naturally aged mice by 150 μL per mouse at the same time until the end of the test. To the control group, PBS buffer was orally administered in the same manner. For all animals, general symptoms were observed immediately before administration at the start of administration, and grip strength was measured at the 11th week of administration in order to analyze muscle strength attenuation. […]

[2] = tested on: DSS-induced enteritis model; experiment: DSS enteritis (inflammatory bowel disease) model; type: in vivo, C57BL/6J mice; conditions: vs PBS buffer group; for Il-6 gene expression in distal colon: RT-qPCR; for length of the colon: oral 3 days in recovery period; for body weight (weight gain rate): recovery period after DSS, oral 6 days
Experimental: In order to confirm the efficacy of the peptides of the present invention for preventing and treating inflammatory bowel disease, an experiment was conducted using an animal model of enteritis. As the enteritis model, enteritis was induced by dissolving DSS in drinking water at a concentration of 1.2% and then administered to 10-week-old specific pathogen free (SPF) male C57BL/6J mice through the drinking water for 6 days, and then the drinking water was replaced with water to give a recovery period. During the recovery period, PEP002, PEP003, PEP004, or PEP005 was dissolved in PBS buffer at a concentration of 4.3 μM and then orally administered to the mice by 150 μL per animal once a day at the same time, and the same volume of PBS buffer was orally administered to the control group. During the recovery period, oral administration was performed 6 times for 6 days to examine the rate of increase in body weight due to recovery from enteritis. In addition, in order to examine the length of the colon, the degree of inflammation in the colon, and the degree of recovery of the colon tissue, the test was terminated after oral administration 3 times for 3 days. At the end of the experiment, the length of the colon was measured, a part of the distal colon was rapidly cooled in liquid nitrogen, and RNA was extracted using Trizol. Reverse transcriptase was added to the obtained RNA and reacted to synthesize cDNA, and SYBR Green and primers were added to perform quantitative real-time PCR (RT-qPCR), and then the level of Il-6 gene expression was quantified. In addition, a part of the distal colon was fixed in 10% NBF at room temperature for 24 hours or more, and then embedded in paraffin to prepare a 5 μm-thick section, and the section was stained with hematoxylin and eosin (H&E). The H&E-stained tissue sections were observed under an optical microscope and the histopathological degree of enteritis was evaluated using a histologic colitis scoring system (Table 4). [table]

[3] = tested on: LPS-induced cognitive and memory disorder mice; experiment: Novel object recognition test in LPS-induced cognitive/memory disorder model; type: in vivo, C57BL/6J mice; conditions: oral; LPS 250 μg/kg/day for 7 days; vs control group
Experimental: LPS was intraperitoneally injected to C57BL/6J male mice at 250 μg/kg/day daily for 7 days to induce cognitive and memory disorders. Amuc_1409, a protein derived from Akkermansia muciniphila, was orally administered to the mice by 5 μg daily from one week before LPS administration until the cognitive and memory test was performed. PEP002, PEP003, PEP004, or PEP005 was dissolved in PBS buffer at a concentration of 2.4 μM and then orally administered to the mice by 150 μL per animal daily at the same time once a day from 3 days before LPS administration until the cognitive and memory test was performed. To the control group (vehicle), PBS was orally administered in the same volume.
In order to test the effect of improving cognitive function in mice with cognitive and memory disorder administered with Amuc_1409 or PEP002, PEP003, PEP004, or PEP005, a novel object recognition test was performed. When the object seen 24 hours ago and a novel object were provided, the exploration time and the number of explorations for the novel object were measured to test cognition and memory.

| Molecule | grip strength [1] | GC (gastrocnemius) muscle weight [1] | TA (tibialis anterior) muscle weight [1] | soleus muscle weight [1] | memory and cognitive function, novel object recognition test [3] | other results |
| --- | --- | --- | --- | --- | --- | --- |
| AGAY (PEP006) | significantly increased | tended to increase | tended to increase | tended to increase | – | – |
| AGS [PEP012] | significantly increased | tended to increase | tended to increase | tended to increase | – | – |
| AIS [PEP013] | significantly increased | tended to increase | tended to increase | tended to increase | – | – |
| AQS [PEP011] | significantly increased | tended to increase | tended to increase | tended to increase | – | – |
| AVS (AVSSIKGAY) [PEP004] | – | – | – | – | improved | Il-6 gene expression in distal colon [2]: significantly decreased; length of the colon [2]: significantly increased; body weight (weight gain rate) [2]: significantly increased; degree of crypt damage (H&E) [2]: significantly decrease; degree or extent of intestinal inflammation (H&E) [2]: decreased |
| AVSSI (PEP002) | – | – | – | – | improved | Il-6 gene expression in distal colon [2]: significantly decreased; length of the colon [2]: significantly increased; body weight (weight gain rate) [2]: tended to increase; degree of crypt damage (H&E) [2]: significantly decrease; degree or extent of intestinal inflammation (H&E) [2]: decreased |
| AVSSIKGAY (PEP001) | – | significantly increased | increased | significantly increased | – | muscle strength (grip strength) ([1]; 10th week of administration): significantly increased; IGF-1 gene expression in GC muscle ([1]; 10th week of administration): tended to increase |
| GAY [PEP005] | – | – | – | – | improved | Il-6 gene expression in distal colon [2]: significantly decreased; length of the colon [2]: significantly increased; body weight (weight gain rate) [2]: significantly increased; degree of crypt damage (H&E) [2]: significantly decrease; degree or extent of intestinal inflammation (H&E) [2]: decreased |
| IGAY (PEP008) | significantly increased | tended to increase | tended to increase | tended to increase | – | – |
| KGAY (PEP003) | – | – | – | – | improved | Il-6 gene expression in distal colon [2]: significantly decreased; length of the colon [2]: tended to increase; body weight (weight gain rate) [2]: tended to increase; degree of crypt damage (H&E) [2]: significantly decrease; degree or extent of intestinal inflammation (H&E) [2]: decreased |
| RGAY (PEP007) | increased to a significant level | tended to increase | tended to increase | increased to a significant level | – | – |
| SGAY (PEP009) | significantly increased | tended to increase | tended to increase | tended to increase | – | – |
| VGAY (PEP010) | significantly increased | tended to increase | tended to increase | tended to increase | – | – |
| B1 | – | increased | increased | significantly increased | improved | muscle strength (grip strength) ([1]; 16th week of administration): significantly increased; muscle fibers with a size of 2,000 μm^2 or more in the TA muscle ([1]; laminin immunostaining): significantly increased; number of muscle fibers with a cross-sectional size of 500 μm^2 or less in the TA muscle ([1]; laminin immunostaining): decreased; average size of all muscle fibers [1]: significantly increased |
